From patent US10730833B2, “Synthesis of diindolylmethanes and indolo[3,2-b]carbazoles, compounds formed thereby, and pharmaceutical compositions containing them” (Wisconsin Alumni Research Foundation, priority 2014, dated 2020)

What follows are compounds tested against AhR (Homo sapiens (Human), UniProt P35869) (assay: ethoxyresorufin-O-deethylase (EROD) assay, AhR activation in HepG2 cells).
Format: cell-based
Protocol: The human Hep G2 cell line from the Small Molecule Screening and Synthesis Facility (UWCCC, Madison, Wis.) and was maintained in DMEM medium supplemented with 10% FBS. Cells were incubated at 37° C. in a humidified atmosphere supplemented with 5% CO2.
Preparation of cells: Cells were cleaved from T75 flasks with 0.05% trypsin. The cells were then collected by spinning at 1 g for 4 min. Excess media containing trypsin was removed from the pellet, which was then re-suspended in growth media. The cells were then counted using a hemocytometer. Cells were plated in sterile 96-well clear bottom black culture plates at a density of 20,000 cells per well in 0.1 mL of media. The cells were then incubated for 24 h at 37° C. in a humidified atmosphere supplemented with 5% CO2.
The ethoxyresorufin-O-deethylase (EROD) assay was performed on cell cultures of human Hep G2 cells. Briefly, 24 h after plating, cells in 96-well plates were treated with AhR agonists and allowed to incubate for 24 h. Each well was then rinsed with 200 uL of PBS buffer twice. To each well was then added 100 uL of 150 nM solution of 7-ethoxyresurufin and allowed to incubate for 2 h. Fluorescence measurements were obtained with a Safire II micro plate reader with excitation at 520 nm with a 25 nm bandwidth and emission at 595 nm with a 20 nm bandwidth.
The bioactivity of malassezin analogs was then investigated. The well-documented ethoxyresorufin-O-deethylase (EROD) assay was used to determine the EC50 values of the compounds towards AhR activation in HepG2 cells. Donato, M. T.; Gomezlechon, M. J.; Castell, J. V. Anal. Biochem. 1993, 213, 29; van Tonder, J. J., University of Pretoria Z.A., Thesis, 2011. This assay measures the induction of cytochrome P450-1A1 (CYP1A1), which is a major outcome of AhR activation. Whyte, J. J.; Jung, R. E.; Schmitt, C. J.; Tillitt, D. E. Crit. Rev. Toxicol. 2000, 30, 347. CYP1A1 selectively converts 7-ethoxyresorufin to the fluorescent product resorufin.

Sequence of AhR (P35869 11-848): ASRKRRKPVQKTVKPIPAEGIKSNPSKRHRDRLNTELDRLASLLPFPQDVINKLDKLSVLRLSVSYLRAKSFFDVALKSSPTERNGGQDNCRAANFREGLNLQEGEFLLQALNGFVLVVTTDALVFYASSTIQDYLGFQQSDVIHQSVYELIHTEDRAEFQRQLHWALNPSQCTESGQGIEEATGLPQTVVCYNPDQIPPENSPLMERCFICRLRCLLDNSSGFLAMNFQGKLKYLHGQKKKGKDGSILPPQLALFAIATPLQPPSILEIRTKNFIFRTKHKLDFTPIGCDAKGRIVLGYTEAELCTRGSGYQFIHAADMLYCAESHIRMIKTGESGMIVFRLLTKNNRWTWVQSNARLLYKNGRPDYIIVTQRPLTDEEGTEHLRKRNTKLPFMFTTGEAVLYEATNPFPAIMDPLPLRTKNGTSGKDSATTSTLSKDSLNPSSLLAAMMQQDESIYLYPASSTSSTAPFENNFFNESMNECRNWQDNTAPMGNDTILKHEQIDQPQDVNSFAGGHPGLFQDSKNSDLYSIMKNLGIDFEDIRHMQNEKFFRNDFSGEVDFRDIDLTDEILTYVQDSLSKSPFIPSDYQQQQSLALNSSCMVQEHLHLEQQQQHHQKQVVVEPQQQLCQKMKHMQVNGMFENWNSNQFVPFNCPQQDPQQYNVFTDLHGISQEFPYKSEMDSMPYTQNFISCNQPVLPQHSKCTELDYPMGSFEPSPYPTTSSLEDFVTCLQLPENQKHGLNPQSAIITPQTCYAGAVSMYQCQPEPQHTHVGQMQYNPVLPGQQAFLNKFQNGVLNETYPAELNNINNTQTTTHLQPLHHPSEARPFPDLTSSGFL

AhR potency (EC50) compared with malassezin, the positive control | Compound
more potent than the positive control | O=Cc1c(Cc2c[nH]c3ccc(Cl)cc23)[nH]c2ccccc12 [Compound 11a]
behaved similarly to malassezin | COc1ccc2[nH]cc(Cc3[nH]c4ccccc4c3C=O)c2c1 [Compound 11c]
slightly weaker agonist | O=Cc1c(Cc2c[nH]c3c(Cl)cccc23)[nH]c2ccccc12 [Compound 11b]

Compound | AhR potency (EC50) compared with malassezin, the positive control
Cn1cc(Cc2[nH]c3ccccc3c2C=O)c2ccccc21 [Compound 11d] | about five times lower than that of malassezin
